Test results from US20090192226A1, “Materials and Methods for Treatment of Pathological Ocular Vascular Proliferation” (priority 2007, published 2009).
Residues, ends and D or L forms follow the SMILES beside them.

Columns and labels:
[1] = tested on: pups undergoing the OIR model; assay: OIR model in pups, oral gavage: pre-retinal neovascularization, vaso-obliteration, vascular density; format: in vivo, mouse; conditions: for reduction in pre-retinal neovascularization relative to vehicle / area of vaso-obliteration: OIR pups; for reduction in pre-retinal neovascularization relative to vehicle: gavaged twice daily P12-P17, H&E cross-sections on P17; for area of vaso-obliteration: gavaged twice daily P12-P17, assessed in P17 pups, vehicle 30.4±7.9%
Excerpt: Retinopathy of prematurity (ROP) is the major cause of blindness in children. Supplementation with arginine or glutamine results in improved clinical outcomes in premature infants. In this study the protective effect of oral administration of Arg-Gln alone and in combination with DHA was examined in pups undergoing the OIR model. METHODS: Nursing dams and pups were returned to normal room air on P12 (postnatal day 12) and gavaged twice daily with: Arg-Gln, DHA, Arg-Gln+DHA or vehicle (P12-P17). Normoxic pups were treated in an identical manner. On P17 the pups were perfused with FITC-labeled dextran. One eye was embedded in paraffin, cross-sectioned and H&E (hematoxylin and eosin) stained for analysis of pre-retinal neovascularization. The retina from the second eye was removed and underwent microscopic analysis for the vessel regrowth, which was evaluated by vessel density.

[2] = tested on: vascular endothelial growth factor (VEGF); assay: retinal cell culture model, vascular endothelial growth factor (VEGF); format: cell-based
[3] = tested on: retinal cell culture model; assay: retinal cell culture model, transepithelial resistance (TER); format: cell-based

Row | SMILES | reduction in pre-retinal neovascularization relative to vehicle [1] [%] | area of vaso-obliteration [1] [%] | vascular endothelial growth factor (VEGF) [2] | pre-retinal neovascularization (result in words) ([1]; OIR mouse model, conclusions) | vaso-obliteration (result in words) ([1]; OIR mouse model, conclusions) | intra-retinal vascular density, a measure of vascular regrowth ([1]; OIR pups following hyperoxia exposure, P17, compared to vehicle treated and normoxic pups) | transepithelial resistance (TER) [3]
1 | CC/C=C\C/C=C\C/C=C\C/C=C\C/C=C\C/C=C\CCC(=O)O [DHA, decosahexaenoic acid] | 45±2 | 3.6±1.3 |  |  |  |  | 
2 | N=C(N)NCCC[C@H](N)C(=O)N[C@@H](CCC(N)=O)C(=O)O [Arg-Gln dipeptide, arginyl-glutamine] (H-Arg-Gln-OH) | 35±1 | 4.8±1.0 | decreased | dramatically inhibited | reduced | restored | increased
